Experimental findings from USRE46511E1, “Fused pyrimidine derivatives for inhibition of tyrosine kinase activity” (HANMI SCIENCE CO., LTD., priority 2010, dated 2017) are described below.

By IC50 is commonly meant the midpoint of a concentration-inhibition curve. Lower therefore signals greater potency in that assay.

SMILES strings stand for the structures.

For assay [1], the system named is NCI-H1975 (EGFR L858R/T790M). Put plainly: Inhibition test for growth of cancer cell expressing EGFR (MTS), NCI-H1975. It counts as cell-based. As to conditions: Homo sapiens; NCI-H1975 cells, 48 hours, MTS; read-out: GI50 NCI-H1975 EGFR L858R/T790M.
Description: A431 cell line was incubated in a high-glucose DMEM (Dulbecco's Modified Eagle's Medium) supplemented with 10% fetal bovine serum (FBS) and 1% penicillin/streptomycin (Gibco BRL), and HCC827 and NCI-H1975 cell lines were incubated in an RPMI medium supplemented with 10% FBS, 1% penicillin/streptomycin and 1% sodium pyruvate.
The cancer cell lines stored in a liquid nitrogen tank were each quickly thawed at 37° C., and centrifuged to remove the medium. The resulting cell pellet was mixed with a culture medium, incubated in a culture flask at 37° C. under 5% CO2 for 2 to 3 days, and the medium was removed. The remaining cells were washed with DPBS (Dulbecco's Phosphate Buffered Saline) and separated from the flask by using Tripsin-EDTA. […] 100 μl of the diluted cell solution was added to each well of a 96-well plate, and incubated at 37° C. under 5% CO2 for 1 day.
In case that the test compound was not soluble in DMSO, 1% HCl was added thereto and treated in a 40° C. water bath for 30 mins until a complete dissolution was attained. The DMSO solution containing test compound was diluted with a culture medium to a final concentration of 100 μM, and then diluted 10 times serially to 10^−6 μM (a final concentration of DMSO was less than 1%).
The medium was removed from each well of the 96-well plate. And then, 100 μl of a test compound solution was added to each well holding the cultured cells, and the plate was incubated at 37° C. under 5% CO2 for 72 hours (except that NCI-H1975 cells were incubated for 48 hours). After removing the medium from the plate, 50 μA of 10% trichloroacetic acid was added to each well, and the plate was kept at 4° C. for 1 hour to fix the cells to the bottom of the plate. The added 10% trichloroacetic acid solution was removed from each well, the plate was dried, 100 μA of an SRB (Sulforhodamine-B) dye solution at a concentration of 0.4% dissolved in 1% acetic acid was added thereto, and the resulting mixture was reacted for 10 mins at room temperature. After removing the dye solution, the plate was washed with water, and well dried. When the dye solution was not effectively removed by water, 1% acetic acid was used. 150 μA of 10 mM trisma base was added to each well, and the absorbance at 540 nm wavelength was determined with a microplate reader.
For another assay, the target named is T1, JAK3 (Homo sapiens, UniProt P52333).
T1 construct: purchased Invitrogen
T1 sequence (P52333 1-1124): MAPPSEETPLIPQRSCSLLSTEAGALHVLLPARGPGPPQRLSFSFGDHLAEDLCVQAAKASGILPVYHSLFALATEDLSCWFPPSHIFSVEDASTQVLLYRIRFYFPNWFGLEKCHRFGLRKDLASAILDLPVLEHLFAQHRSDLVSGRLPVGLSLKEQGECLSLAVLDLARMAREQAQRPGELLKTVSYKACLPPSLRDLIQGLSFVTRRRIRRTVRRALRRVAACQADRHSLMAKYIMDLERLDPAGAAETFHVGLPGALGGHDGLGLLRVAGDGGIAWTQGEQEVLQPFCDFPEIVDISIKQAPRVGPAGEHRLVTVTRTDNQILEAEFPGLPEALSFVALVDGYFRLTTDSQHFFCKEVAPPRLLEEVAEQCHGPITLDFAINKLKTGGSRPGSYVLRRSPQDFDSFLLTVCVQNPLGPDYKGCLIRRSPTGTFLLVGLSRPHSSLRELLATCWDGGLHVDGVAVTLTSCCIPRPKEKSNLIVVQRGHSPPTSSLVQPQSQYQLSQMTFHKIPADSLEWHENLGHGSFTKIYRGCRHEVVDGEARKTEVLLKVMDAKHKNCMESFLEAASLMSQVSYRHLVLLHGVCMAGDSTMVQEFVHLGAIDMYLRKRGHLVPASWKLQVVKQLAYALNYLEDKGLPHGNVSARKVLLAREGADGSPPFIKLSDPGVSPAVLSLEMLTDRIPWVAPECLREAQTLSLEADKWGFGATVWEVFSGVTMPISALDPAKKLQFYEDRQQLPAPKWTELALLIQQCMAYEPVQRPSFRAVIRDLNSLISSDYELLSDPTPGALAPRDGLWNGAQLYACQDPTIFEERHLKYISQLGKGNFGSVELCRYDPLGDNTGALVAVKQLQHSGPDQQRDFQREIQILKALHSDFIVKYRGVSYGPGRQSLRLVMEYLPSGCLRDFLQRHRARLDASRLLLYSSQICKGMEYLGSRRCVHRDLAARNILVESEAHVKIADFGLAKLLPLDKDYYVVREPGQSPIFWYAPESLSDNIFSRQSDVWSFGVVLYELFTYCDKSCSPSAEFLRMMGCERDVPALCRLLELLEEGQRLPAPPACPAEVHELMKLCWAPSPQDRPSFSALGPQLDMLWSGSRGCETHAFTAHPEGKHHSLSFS
Put plainly: z-lyte kinase assay, JAK3. It is filed as biochemical. The protocol:
(§1) The inhibiting activities of the inventive compounds obtained in Examples 1 to 237 against EGFR WT and EGFR L858R/T790M kinase were determined using z-lyte kinase assay kit (Invitrogen, PV3191). The kinases used in the test were purchased from Invitrogen.
(§2) The compounds obtained in Examples 1 to 237 were each prepared to 10 mM DMSO solution, and a solution containing 4% DMSO were prepared therefrom and diluted to a concentration of 1 μM to 0.0001 μM. […] The test was conducted in a 384 well polystyrene flat-bottomed plates. 5 μl of the diluted solution of each compound was added to each well, and 10 μl of a mixture of peptide substrate and kinase in a suitable concentration and 5 μl of 5˜300 μM ATP solution were successively added thereto and the plate was incubated in a stirrer at room temperature for 60 minutes. After 60 mins, 10 μl of coloring reagent was added to the resulting mixture to initiate a fluorescence reaction of peptide substrate and a terminating solution was added thereto for terminating the reaction. A fluorescence value of each well was determined with a fluorescence meter (Molecular Device) at 400 nm (excitation filter) and 520 nm (emission filter). […] The calculation of IC50 and the result analysis were carried out by using Microsoft Excel.
(§3) The inhibiting activities of the inventive compounds obtained in Examples 1 to 237 against BTK and JAK3 kinases were determined, respectively. The procedure of Test Example 2 was repeated except that BTK and JAK3 kinases (Invitrogen) were employed instead of using the EGFR kinase.

A further assay addresses T2, BTK (Homo sapiens, UniProt Q06187).
T2 construct: purchased Invitrogen
Description: z-lyte kinase assay, BTK. It counts as biochemical. The protocol:
as §1, §2, §3

For a further assay, the system named is A431 (EGFR WT). Description: Inhibition test for growth of cancer cell expressing EGFR (SRB), A431.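 Also: cells in 96-well plates exposed to tenfold serial dilutions from 100 µM down to 10^−6 µM, DMSO under 1%, SRB staining read as absorbance at 540 nm.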 It counts as cell-based. Conditions: Homo sapiens, A-431; A431 cells, 72 hours, SRB; read-out: GI50 A431 EGFR WT.
The test system of assay [2] is HCC827 (EGFR DelE746_A750). Put plainly: Inhibition test for growth of cancer cell expressing EGFR (SRB), HCC827.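 Also: cells in 96-well plates exposed to tenfold serial dilutions from 100 µM, fixed with trichloroacetic acid, SRB-stained, absorbance read at 540 nm, DMSO under 1%.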 It is filed as cell-based. Conditions: Homo sapiens, HCC827, 72 h, HCC827 cells, 72 hours, SRB; read-out: GI50 HCC827 EGFR DelE746_A750.

T2 sequence (Q06187 whole entry): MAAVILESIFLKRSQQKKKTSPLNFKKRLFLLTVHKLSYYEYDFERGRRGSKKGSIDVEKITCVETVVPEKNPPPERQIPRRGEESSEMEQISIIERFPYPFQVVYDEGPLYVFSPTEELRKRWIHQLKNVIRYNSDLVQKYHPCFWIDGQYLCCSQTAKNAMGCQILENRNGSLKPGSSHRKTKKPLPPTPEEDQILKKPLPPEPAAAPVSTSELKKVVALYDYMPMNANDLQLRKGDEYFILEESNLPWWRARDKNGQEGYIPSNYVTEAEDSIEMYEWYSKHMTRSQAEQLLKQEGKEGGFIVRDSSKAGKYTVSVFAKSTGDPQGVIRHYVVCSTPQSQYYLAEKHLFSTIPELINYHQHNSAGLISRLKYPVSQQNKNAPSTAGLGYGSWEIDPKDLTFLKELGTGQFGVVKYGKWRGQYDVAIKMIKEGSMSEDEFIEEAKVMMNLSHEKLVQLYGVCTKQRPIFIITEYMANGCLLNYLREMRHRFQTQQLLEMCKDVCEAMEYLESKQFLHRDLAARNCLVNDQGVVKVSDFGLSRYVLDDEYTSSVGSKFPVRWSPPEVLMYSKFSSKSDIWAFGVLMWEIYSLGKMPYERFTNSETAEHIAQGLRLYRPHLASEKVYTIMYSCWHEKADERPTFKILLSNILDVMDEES

On to `C=CC(=O)Nc1cccc(Oc2nc(Nc3ccc(N4CCN(C)CC4)c(F)c3)nc3ccsc23)c1` [Example 3], for which the values for the GI50 (in assay [1]; in the assay with A431 (EGFR WT); in assay [2]) were < 50 nM, > 1000 nM and < 50 nM, respectively. Moreover, the IC50 against JAK3 is 50 to 100 nM; against BTK, ≤ 50 nM.

With `C=CC(=O)Nc1cccc(Oc2nc(Nc3ccc(N4CCN(C(C)C)CC4)cc3)nc3ccsc23)c1` [Example 11], the GI50 was < 50 nM in assay [1], 100 to 1000 nM with A431 (EGFR WT) and < 50 nM in assay [2]. The concentration for half-maximal inhibition (IC50) at JAK3 and on BTK was ≤ 50 nM throughout.

In the case of `C=CC(=O)Nc1cccc(Oc2nc(Nc3ccc(N4CCOCC4)cc3)nc3ccsc23)c1` [Example 29], the GI50 is < 50 nM in assay [1], > 1000 nM in the assay with A431 (EGFR WT) and 50 to 100 nM in assay [2]. For the same compound, the IC50 on JAK3 and on BTK was ≤ 50 nM throughout.

With `C=CC(=O)Nc1cccc(Oc2nc(Nc3ccc(N4CCC(CN5CCCCC5)CC4)cc3)nc3ccsc23)c1` [Example 42], the GI50 in assay [1] is < 50 nM; with A431 (EGFR WT), > 1000 nM; in assay [2] it was < 50 nM. Further, the IC50 at JAK3 was 50 to 100 nM; against BTK, ≤ 50 nM.

Consider `C=CC(=O)Nc1cccc(Oc2nc(Nc3ccc(N4CCC(N5CCN(CC)CC5)CC4)cc3)nc3ccsc23)c1` [Example 50], for which the GI50 in assay [1] was 100 to 1000 nM; with A431 (EGFR WT) it was > 1000 nM; in assay [2] it was < 50 nM. The half-inhibitory concentration (IC50) against JAK3 was 50 to 100 nM; against BTK, ≤ 50 nM.

Take `C=CC(=O)Nc1cccc(Oc2nc(Nc3ccc(C4=CCN(C)CC4)cc3)nc3ccsc23)c1` [Example 51]: the GI50 in assay [1] was < 50 nM; with A431 (EGFR WT) it was > 1000 nM; in assay [2], < 50 nM. In addition, the IC50 on JAK3 was 50 to 100 nM; against BTK it was ≤ 50 nM.

Consider `C=CC(=O)Nc1cccc(Oc2nc(Nc3ccc(C4CCN(CC)CC4)cc3)nc3ccsc23)c1` [Example 53], for which the GI50 in assay [1] was < 50 nM; with A431 (EGFR WT) it was > 1000 nM; in assay [2], < 50 nM. In addition, the IC50 on JAK3 and against BTK was ≤ 50 nM each time.

In the case of `C=CC(=O)Nc1cccc(Oc2nc(Nc3ccc(OCCN(C)C)cc3)nc3ccsc23)c1` [Example 62], the GI50 is < 50 nM in assay [1], > 1000 nM with A431 (EGFR WT) and < 50 nM in assay [2]. The IC50 on JAK3 and on BTK was ≤ 50 nM each time.

With `C=CC(=O)Nc1cccc(Oc2nc(Nc3ccc(OC4CCN(CC)CC4)cc3)nc3ccsc23)c1` [Example 66], the GI50 in assay [1] was < 50 nM; in the assay with A431 (EGFR WT), > 1000 nM; in assay [2], < 50 nM. In addition, the results for the concentration for half-maximal inhibition (IC50) against JAK3 and against BTK were 50 to 100 nM and ≤ 50 nM, respectively.

On to `C=CC(=O)Nc1cccc(Oc2nc(Nc3ccc(C(=O)NC4CCN(C)CC4)cc3)nc3ccsc23)c1` [Example 82], for which the GI50 in assay [1] is < 50 nM; in the assay on A431 (EGFR WT), > 1000 nM; in assay [2], < 50 nM. Moreover, the IC50 against JAK3 and against BTK was ≤ 50 nM in each case.

Take `C=CC(=O)Nc1cccc(Oc2nc(Nc3ccc(C(=O)NC4CCN(C(C)C)CC4)cc3)nc3ccsc23)c1` [Example 83]: the values for the GI50 (in assay [1]; in the assay with A431 (EGFR WT); in assay [2]) were < 50 nM, 100 to 1000 nM and < 50 nM, respectively. Also, the IC50 at JAK3 and against BTK was ≤ 50 nM each time.

Consider `C=CC(=O)Nc1cccc(Oc2nc(Nc3ccc(CCN4CCN(CC)CC4)cc3)nc3ccsc23)c1` [Example 99], for which the GI50 in assay [1] is < 50 nM; with A431 (EGFR WT), > 1000 nM; in assay [2] it was 50 to 100 nM. Besides, the results for the concentration for half-maximal inhibition (IC50) against JAK3 and at BTK were 50 to 100 nM and ≤ 50 nM, respectively.

`C=CC(=O)Nc1cccc(Oc2nc(Nc3ccc(N4CCC(N5CCCCC5)CC4)c(F)c3)nc3ccsc23)c1` [Example 125]: the figures for the GI50 (in assay [1]; with A431 (EGFR WT); in assay [2]) were < 50 nM, > 1000 nM and < 50 nM, respectively. The IC50 on JAK3 and on BTK was ≤ 50 nM each time.

As for `C=CC(=O)Nc1cccc(Oc2nc(Nc3ccc(NC4CCN(C)CC4)c(F)c3)nc3ccsc23)c1` [Example 129], the GI50 was < 50 nM in assay [1], > 1000 nM in the assay with A431 (EGFR WT) and < 50 nM in assay [2]. Further, the IC50 against JAK3 and at BTK was ≤ 50 nM throughout.

For the compound `C=CC(=O)Nc1cccc(Oc2nc(Nc3ccc(NC4CCN(C(C)C)CC4)c(F)c3)nc3ccsc23)c1` [Example 130], the GI50 in assay [1] and in assay [2] was < 50 nM each time. The IC50 was ≤ 50 nM at JAK3 and 50 to 100 nM at BTK.

On to `C=CC(=O)Nc1cccc(Oc2nc(Nc3ccc(C(=O)NC4CCN(C)CC4)c(Cl)c3)nc3ccsc23)c1` [Example 142], for which the GI50 in assay [1] was < 50 nM; in the assay with A431 (EGFR WT) it was > 1000 nM; in assay [2], < 50 nM. In addition, the IC50 against JAK3 and on BTK was ≤ 50 nM throughout.

Turning to `C=CC(=O)Nc1cccc(Oc2nc(Nc3ccc(N4CCN(C5CCN(C)CC5)CC4)nc3)nc3ccsc23)c1` [Example 148], the GI50 in assay [1] and in assay [2] was < 50 nM throughout. Further, the IC50 against JAK3 was 50 to 100 nM; at BTK, ≤ 50 nM.

Consider `C=CC(=O)Nc1cccc(Oc2nc(Nc3ccc(NC4CCN(C(C)C)CC4)nc3)nc3ccsc23)c1` [Example 154], for which the GI50 in assay [1] and in assay [2] was 50 to 100 nM in each case. Also, the 50% inhibitory concentration (IC50) against JAK3 was 50 to 100 nM; at BTK it was ≤ 50 nM.

`C=CC(=O)Nc1cccc(Oc2nc(Nc3ccc(CN4CCN(C)CC4)nc3)nc3ccsc23)c1` [Example 169]: the values for the GI50 in assay [1] and in assay [2] were 50 to 100 nM and < 50 nM, respectively. In addition, the IC50 at JAK3 was 50 to 100 nM; against BTK it was ≤ 50 nM.

With `C=CC(=O)Nc1cccc(Oc2nc(Nc3ccc(CN(C)C)cc3)nc3ccsc23)c1` [Example 173], the GI50 was < 50 nM in assay [1], 100 to 1000 nM in the assay on A431 (EGFR WT) and < 50 nM in assay [2]. The IC50 on JAK3 and on BTK was ≤ 50 nM throughout.

As to `C=CC(=O)Nc1cccc(Oc2nc(Nc3ccc(CN(CC)CC)cc3)nc3ccsc23)c1` [Example 174], the GI50 in assay [1] and in assay [2] was < 50 nM throughout. Also, the IC50 against JAK3 was 50 to 100 nM; against BTK, ≤ 50 nM.

Consider `C=CC(=O)Nc1cccc(Oc2nc(Nc3ccc(CN4CCC(N(C)C)CC4)cc3)nc3ccsc23)c1` [Example 180], for which the GI50 is < 50 nM in assay [1], > 1000 nM in the assay with A431 (EGFR WT) and < 50 nM in assay [2]. Moreover, the IC50 against JAK3 and on BTK was ≤ 50 nM in each case.

Turning to `C=CC(=O)Nc1cccc(Oc2nc(Nc3ccc(CN4CCC(N(C)C)CC4)cc3)nc3ccoc23)c1` [Example 232], the GI50 in assay [1] and in assay [2] was 50 to 100 nM throughout. Besides, the IC50 at JAK3 and on BTK was ≤ 50 nM throughout.
